In publication PMC12669040, “Tumour-specific STING agonist synthesis via a two-component prodrug system” (Nature Chemistry, 2025):
Several values for one entry are separate records, joined by “and”; a condition that tells them apart may be missing. Equal values may be shown once. Read-outs that look alike come from different tables or passages of the source.

Columns and labels:
[1] = tested on: non-tumour zebrafish larvae; experiment: Maximum tolerated concentration (MTC) on non-tumour zebrafish larvae; format: in vivo, zebrafish (Danio rerio)
Method: Extended Data Fig. 7 Additional zebrafish experiment data. a MTC of β-GlcA-N1/E4 treatments on non-tumor zebrafish larvae. […] Toxicity was assessed daily by counting the total number of dead larvae and checking for the presence of morphologic changes such cardiac edemas or curved tails. Control groups were treated with the highest matched DMSO concentration (0.04%, v/v). b Left: representative image of phagocytosis in a xenograft treated with β-GlcA-N1/E4 and β-glucuronidase at 2dpi in Tg(mpeg1:mcherry-F). Each yellow arrow indicates a phagocytic event. Right: n° of phagocytic events at 2dpi. Data are presented as mean ± SEM. Statistical analysis follows that of Fig. 5. Source data

[2] = Haematotoxicity, CT26mβGUS model; format: in vivo, BALB/c mice; set-up: WBC / RBC: unit not given here
Excerpt: MCV: Mean Corpuscular Volume; MCH: Mean Corpuscular Haemoglobin; WBC: White Blood Cell Count; PLT: Platelet Count; RDW-CV: Red Cell Distribution Width - Coefficient of Variation; MPV: Mean Platelet Volume. RBC: red blood cell count; HGB: haemoglobin; HCT: haematocrit; MCV: Mean Corpuscular Volume; MCH: Mean Corpuscular Haemoglobin; WBC: White Blood Cell Count; PLT: Platelet Count; RDW-CV: Red Cell Distribution Width - Coefficient of Variation; MPV: Mean Platelet Volume. […] Source data

MC38 tumours = conditions: for Tumor Size: individual mice, * = excluded once a death was recorded in the group
[3] = target: T1, wild-type human STING LBD (hSTINGwt 138-379) (Homo sapiens, UniProt Q86WV6, H232R); experiment: Isothermal titration calorimetry (ITC), reverse titration; format: binding
T1 construct: SUMO (N, cleaved yes); made in house; host or cells: Escherichia coli BL21 (DE3)
T1 sequence (Q86WV6 138-379 H232R): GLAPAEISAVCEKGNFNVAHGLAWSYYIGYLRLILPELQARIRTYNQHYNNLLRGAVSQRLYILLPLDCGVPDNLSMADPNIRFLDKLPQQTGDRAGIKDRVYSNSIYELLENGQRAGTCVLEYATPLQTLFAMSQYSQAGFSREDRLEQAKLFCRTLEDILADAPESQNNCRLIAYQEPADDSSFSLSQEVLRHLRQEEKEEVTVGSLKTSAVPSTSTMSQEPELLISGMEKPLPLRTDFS
Method: Escherichia coli BL21 (DE3) (Thermo Scientific EC0114) was transformed with a pET28a plasmid (Genscript) harbouring the codon-optimized sequence of SUMO-hSTINGwt (aa138-379). Transformed BL21 cells were inoculated into LB medium (50 µg ml^−1 kanamycin) and incubated at 180 rpm, 37 °C overnight. The overnight culture was then diluted (1:100 dilution) in 2× YT medium (50 µg ml^−1 kanamycin) and incubated at 180 rpm, 37 °C until optical density at 600 nm (OD600) reached 0.6 (approximately 3 h). The bacterial culture was then cooled to 16 °C, induced with 0.5 mM isopropyl 1-thio-D-galactopyranoside and incubated overnight at 180 rpm, 16 °C. The bacterial cells were pelleted at 4,000g for 30 min, resuspended in 20 ml of lysis buffer (25 mM HEPES pH 7.5, 150 mM NaCl, 20 mM imidazole and 2 mM TCEP supplied with 2 tablets of cOmplete mini EDTA-free protease inhibitors) and disrupted by sonication on ice. The total lysate was clarified by centrifugation at 22,000g for 30 min. The supernatant was collected and filtered through a 0.45-µm filter (Millipore SLHAR33SS). The clarified lysate was then incubated on a roller with 10 ml bed volume of Ni-NTA resin (Thermo Scientific 88223) at 4 °C for 1 h. The Ni-NTA resin was then packed in a column, flushed with 20 ml of wash buffer (25 mM HEPES pH 7.5, 150 mM NaCl and 20 mM imidazole) and eluted with 40 ml of elution buffer (25 mM HEPES pH 8.0, 150 mM NaCl and 250 mM imidazole). The eluted protein was concentrated to approximately 5 ml (Millipore Amicon 10 kDa molecular weight cut-off (MWCO)) and buffer-exchanged into storage buffer (25 mM HEPES pH 7.5 and 150 mM NaCl). TCEP was then added to a final concentration of 2 mM, and 250 units of SUMO protease (Merck SAE0067) were added. The cleavage reaction mixture was left to stand at 4 °C overnight until LC–MS analysis indicated the completion of the cleavage reaction. The cleavage mixture was incubated with 10 ml bed volume of Ni-NTA resin on a roller at 4 °C for 1 h and packed in a disposable column. The flowthrough was collected, and the resin was further flushed with 20 ml of wash buffer. The eluted fractions were combined, concentrated and further purified by size-exclusion chromatography (Cytiva, Superdex 200 Increase 10/300 GL). The purified protein in storage buffer was concentrated to 330 µM (dimer concentration) as determined by bicinchoninic acid (BCA) assay, aliquoted, flash-frozen in liquid nitrogen and stored at −80 °C for future use.
The binding constants of purified dimers were measured by ITC (Malvern Panalytical AutoITC200) in a reverse-titration format. Stock DMSO solutions of each dimer were dissolved in titration buffer (25 mM HEPES pH 7.5 and 150 mM NaCl) to a final concentration of 25 µM and added to the titration cell. The syringe was filled with 250 µM of purified STING in a matching buffer. Titration was performed at 25 °C with the following parameters: 750 rpm stirring, 0.2 µl initial injection followed by 2-µl injections of the […] every 120 s. Titration of STING protein into blank buffer was separately performed and subtracted from the raw data before the analysis. The background-subtracted titration curves were fitted with the built-in Origin software using the standard one-site model.
Extended Data Fig. 2 Isothermal titration calorimetry (ITC) data for binding constant measurements. Purified hSTINGwt138-379 (250 μM of homodimer) was titrated into each dimer (25 μM) dissolved in a matching buffer (25 mM HEPES pH 7.5, 150 mM NaCl) at 25 °C and 750 rpm stirring. Binding constants were reported as the average from duplicate measurements.

[4] = Day0, individual mice, in % (unit assumed)
[5] = Day0, individual mice, in pg (unit assumed)
[6] = Day5, individual mice, in % (unit assumed)
[7] = Day5, individual mice, in fL (unit assumed)
[8] = Day5, individual mice, in g/dL (unit assumed)

| Structure (SMILES) | MPV ([2]; Day0, individual mice) | PLT ([2]; Day0, individual mice) | RBC ([2]; Day0, individual mice) | WBC ([2]; Day0, individual mice) | HCT [2, 4] | MCH [2, 5] | MCH ([2]; Day5, individual mice) | MPV ([2]; Day5, individual mice) | PLT ([2]; Day5, individual mice) | RBC ([2]; Day5, individual mice) | WBC ([2]; Day5, individual mice) | HCT [2, 6] | MCV [2, 7] | HGB [2, 8] | other results |
| --- | --- | --- | --- | --- | --- | --- | --- | --- | --- | --- | --- | --- | --- | --- | --- |
| COc1cc2cc(C(=O)CCC(=O)O)sc2cc1OC [MSA2] | 6.5 and 7.1 and 7.9 | 1210 and 892 and 696 and 576 | 10.94 and 10.54 and 10.66 and 9.7 | 7.1 and 7.7 and 8.8 and 8.2 | 53.4 and 52.7 and 52.8 and 48.8 | 15.1 and 14.8 and 14.6 and 14.9 | 14.9 pg (3×) and 15 pg | 6.6 and 7.6 (2×) and 6.8 | 1244 and 920 and 808 and 855 | 10 and 8.31 and 9.87 and 7.92 | 8.6 and 8 and 9.3 and 7.4 | 51.7 and 43.1 and 50.2 and 40.6 | 51.7 and 51.9 and 50.9 and 51.3 | 14.9 and 12.4 and 14.8 and 11.8 | MSA2 MTC, event per larva (0/1) ([1]; 15 μM, day 3): 0; MSA2 MTC, survival event code per larva ([1]; 15 μM, Days 3, one cell per larva (0/1 code)): 0; MSA2 MTC, event per larva (0/1) ([1]; 75 μM, day 1): 0; MSA2 MTC, event per larva (0/1) ([1]; 75 μM, day 3): 1; MSA2 MTC, survival event code per larva ([1]; 75 μM, Days 3, one cell per larva (0/1 code)): 0; MSA2 MTC, survival event code per larva ([1]; 150 μM, Days 3, one cell per larva (0/1 code)): 0; HGB ([2]; Day0, individual mice): 16.5 and 15.6 (2×) and 14.5; RDW-CV ([2]; Day0, individual mice): 14.4 and 15.1 (2×) and 15.3; MCV ([2]; Day0, individual mice, in fL (unit assumed)): 48.8 and 50 and 49.5 and 50.3; RDW-CV ([2]; Day5, individual mice): 16 and 14.5 and 14.4 (2×); red blood cells, haemoglobin and haematocrit ([2]; MSA2 5 mg kg^−1 IT): modest decreases; Tumor Size (MC38 tumours; day 39): 279.4986* mm^3; Tumor Size (MC38 tumours; day 53): 0* mm^3; Survival: Days (MC38 tumours; mouse, in vivo): 60 days and 49 days and 35 days |
| COc1cc2sc(C(=O)CCC(=O)O)cc2cc1SCCSc1cc2cc(C(=O)CCC(=O)O)sc2cc1OC [SC2S] | 8 and 7.6 and 6.7 and 7.2 | 670 and 896 and 1143 and 870 | 9.65 and 10.31 and 10.59 and 10.89 | 11 and 10 and 8.7 and 8.4 | 53.1 and 53.2 and 53 and 54.5 | 15.1 and 14.8 and 14.9 and 15 | 15.1 and 14.7 and 15.2 (2×) | 7.6 (2×) and 6.6 | 155 and 541 and 770 and 1292 | 8.22 and 9.33 and 9.82 and 10.19 | 9.2 and 10.4 and 6.6 (2×) | 42 and 49.9 and 50.4 and 52 | 51.1 and 50.3 and 51.3 and 51 | 12.4 and 13.7 and 14.9 and 15.5 | Kd ([3]; 25 °C, average of duplicate measurements, read-out: Kd hSTINGwt (binding constant, ITC)): 0.176 µM; Kd ([3]; ITC run _01, read-out: Kd): 0.191 µM; Kd ([3]; ITC run _02, read-out: Kd): 0.16 µM; SC2S MTC, event per larva (0/1) ([1]; 0.62 μM, day 3): 1; SC2S MTC, event per larva (0/1) ([1]; 3.1 μM, day 1): 0; SC2S MTC, event per larva (0/1) ([1]; 3.1 μM, day 3): 0; SC2S MTC, survival event code per larva ([1]; 6.2 μM, Days 3, one cell per larva (0/1 code)): 1; MCV ([2]; Day0, individual mice): 55 and 51.6 and 50 (2×); RDW-CV [2, 4]: 14.7 and 15.1 and 14.8 and 15; HGB ([2]; Day0, individual mice, in g/dL (unit assumed)): 14.6 and 15.3 and 15.8 and 16.3; RDW-CV [2, 6]: 14 and 14.3 and 16.7 and 15.7 |
